Laboratory results published in patent US20100204107A1, “USE OF URODILATIN AS A THERAPEUTIC AGENT” (priority 2007, published 2010).

Tested on: Human Peripheral Blood Mononuclear Cells (PBMC)
Assay: T cell proliferation assay (PHA, 3H-thymidine)
Format: cell-based
Details: 10 micrograms per ml, 3 days plus 12 hours 3H-thymidine

Secretin
% of PHA induced control: 100.5%
